Laboratory results reported in patent US20030050248A1 (priority 2000, published 2003).
≈ marks a conversion by molar mass, not a printed value. Like-named read-outs stand apart in the source and are kept apart here. Ends that are not written are not given here. Peptide text beside a SMILES is read from it. * marks the point of attachment. Fmoc = O=C(OCC1c2ccccc2-c2ccccc21)*; X1 = O=C(Sc1ccccc1)*

Assays:
S. aureus [1] = type: cell-based
RNAIII [2] = type: cell-based, S. aureus
S. epidermidis (51625) = type: cell-based
S. haemolyticus = type: cell-based
S. aureus [3] = test system: S. aureus
S. aureus [4] = assay: Mouse model, Staph injected IP 20 min prior to drug injection (IP); type: in vivo, mice; conditions: for % Survival at 24 hr.: 20 min after Staph; for Number of mice that survived at 24 hours post-injection relative to vehicle (in words): VIF-1 20 or 15 mg/kg, FTB 10 mg/kg
Protocol: (§1) The assay was carried out by injecting a fixed amount of a S. aureus culture, typically containing from about 5×10^9 cells from an early exponential growth stage culture, by intraperitoneal (IP) injection into mice, based on the method described by Thakker et al., 1998.
In another approach, S. aureus was injected IP 20 minutes prior to IP injection of VIF-1 or FTB.
The commonly used anti-Staphylococcal antibiotics, methicillin and vancomycin, were tested in this model.

S. aureus [5] = assay: Mouse model, Staph mixed with drug prior to IP injection; type: in vivo, mice; conditions: for % Survival at 24 hr.: mixed with Staph prior to IP injection; for Number of mice that survived at 24 hours post-injection (in words): VIF-1 3 or 15 mg/kg, FTB 1, 2 or 5 mg/kg
Protocol: as §1
In one study, the S. aureus was mixed with VIF-1 or FTB, prior to IP injection.

S. aureus [6] = assay: microbe, parasite or virus in culture; conditions: Staphylococcus aureus, Erythrocyte, in Oryctolagus cuniculus
RNAIII [7] = conditions: reported by Balaban et al., 1998; cited from earlier work
[8] = read-out: Inhibition of α-Hemolysin production, Table 4, (n) in cell = number of determinations
[9] = read-out: IC50 (relative activity), text b100/b101, assay not named, values match the α-hemolysin column of Table 4

N[C@@H](Cc1c[nH]c2ccccc12)C(=O)O [Reference #46, H-L-Trp-OH]
Inhibition of TSST-1 (S. aureus [1]): >10.0 µg/mL
Inhibition of RNA III activation (RNAIII [2]): >10.0 (3) μg/ml

O=C(O)[C@@H]1CC[C@H](c2ccccc2)N1C(=O)OCC1c2ccccc2-c2ccccc21 [Reference #113, (2S,5R)-Fmoc-5-phenyl-pyrrolidine-2-carboxylic acid]
IC50, α-toxin production (S. warneri): 0.6 µg/mL (≈ 1.45 µM)
IC50, α-toxin production (S. epidermidis (51625)): 0.5 µg/mL (≈ 1.21 µM)
Inhibition of TSST-1 (S. aureus [1]): 6.0 µg/mL
IC50, α-toxin production (S. haemolyticus): 0.7 µg/mL (≈ 1.69 µM)
IC50, α-toxin production (S. aureus [3]): 0.9 µg/mL (≈ 2.18 µM)
Inhibition of α-Hemolysin production (S. aureus [3]): 1.7 (5) μg/ml
Inhibition of α-toxin production (in words) (S. aureus [3]): inhibited α-toxin production
Inhibition of RNA III activation (RNAIII [2]): 3.0 (1) μg/ml

C[C@@H](O)[C@H](NC(=O)[C@H](Cc1cn(C(=O)Sc2ccccc2)c2ccccc12)NC(=O)[C@@H]1CCCN1C(=O)[C@H](CO)NC(=O)[C@H](Cc1ccc(O)cc1)NC(=O)OCC1c2ccccc2-c2ccccc21)C(=O)N[C@@H](CC(N)=O)C(=O)N[C@@H](Cc1ccccc1)C(=O)O [VIF-1, (Fmoc-Tyr)-Ser-Pro-Trp(phenylthiocarbamate)-Thr-Asn-Phe] (Fmoc-YSPW(X1)TNF-OH; C-terminus assumed)
IC50, α-toxin production (S. warneri): 0.1 µg/mL (≈ 0.0786 µM)
IC50 for inhibition of hemolysin production (S. warneri): 0.10 µg/mL
Inhibition of hemolysin production (in words) (S. warneri): potently inhibited
% Survival at 24 hr. (S. aureus [4]; 6 mg/kg IP): 13%
% Survival at 24 hr. (S. aureus [4]; 15 mg/kg IP): 50%
% Survival at 24 hr. (S. aureus [4]; 20 mg/kg IP): 67%
Number of mice that survived at 24 hours post-injection relative to vehicle (in words) (S. aureus [4]): effective to significantly increase the number of mice that survived
% Survival at 24 hr. (S. aureus [5]; 1 mg/kg): 67%
% Survival at 24 hr. (S. aureus [5]; 3 mg/kg): 83%
% Survival at 24 hr. (S. aureus [5]; 15 mg/kg): 83%
Number of mice that survived at 24 hours post-injection (in words) (S. aureus [5]): effective to significantly increase the number of mice that survived
Lowest concentration that suppressed release of TSST-1 (S. aureus [1]): 0.2 µg/mL
IC50, α-toxin production (S. aureus [3]): 0.6 µg/mL (≈ 0.472 µM)
Inhibition of α-Hemolysin production (S. aureus [3]): 1.1 µg/mL
Inhibition of α-toxin production (in words) (S. aureus [3]): inhibited α-toxin production
Inhibition of RNA III activation (RNAIII [2]): 1.5 µg/mL

O=C(N[C@@H](C/C=C/c1ccccc1)C(=O)O)OCC1c2ccccc2-c2ccccc21 [Reference #124, Fmoc-L-styrylalanine]
IC50, α-toxin production (S. warneri): 0.7 µg/mL (≈ 1.69 µM)
IC50, α-toxin production (S. epidermidis (51625)): 0.6 µg/mL (≈ 1.45 µM)
Inhibition of TSST-1 (S. aureus [1]): 10.0 µg/mL
IC50, α-toxin production (S. haemolyticus): 0.5 µg/mL (≈ 1.21 µM)
Inhibition of α-Hemolysin production (S. aureus [3]): 2.0 (4) μg/ml
Inhibition of α-toxin production (in words) (S. aureus [3]): inhibited α-toxin production
Inhibition of RNA III activation (RNAIII [2]): 2.9 (1) μg/ml

Cc1ccc(C[C@H](NC(=O)OCC2c3ccccc3-c3ccccc32)C(=O)O)cc1 [Reference #74, Fmoc-4-methyl-L-phenylalanine]
IC50 (S. aureus [6]; [8]): 2.3 µg/mL (≈ 5.73 µM)

YSPWTNF [PEP, reference compound]
Inhibition of induction of RNAIII (in words) (RNAIII [7]): inhibit induction of RNAIII as effectively as RIP
Inhibition of α-toxin / virulence factor production (in words) (S. aureus [3]): no significant activity
Inhibition of RNAIII induction (in words) (RNAIII [2]): no significant activity

O=C(Nc1ccccc1C(=O)O)OCC1c2ccccc2-c2ccccc21 [Reference #4, Fmoc-2-aminobenzoic acid]
IC50, α-toxin production (S. warneri): 0.6 µg/mL (≈ 1.67 µM)
IC50, α-toxin production (S. epidermidis (51625)): 0.5 µg/mL (≈ 1.39 µM)
Inhibition of TSST-1 (S. aureus [1]): 2.0 µg/mL
IC50, α-toxin production (S. haemolyticus): 0.7 µg/mL (≈ 1.95 µM)
Inhibition of α-Hemolysin production (S. aureus [3]): 0.9 (5) μg/ml
Inhibition of α-toxin production (in words) (S. aureus [3]): inhibited α-toxin production
Inhibition of RNA III activation (RNAIII [2]): 2.9 (3) μg/ml

O=C(N[C@@H](CC1CCCCC1)C(=O)O)OCC1c2ccccc2-c2ccccc21 [Fmoc-beta-cyclohexyl-L-alanine]
IC50 (S. aureus [6]; [9]): 4 µg/mL (≈ 10.2 µM)

O=C(O)[C@H]1c2ccccc2CCN1C(=O)OCC1c2ccccc2-c2ccccc21 [Reference #16]
IC50, α-toxin production (S. warneri): 0.6 µg/mL (≈ 1.5 µM)
IC50, α-toxin production (S. epidermidis (51625)): 0.5 µg/mL (≈ 1.25 µM)
Inhibition of TSST-1 (S. aureus [1]): 4.0 µg/mL
IC50, α-toxin production (S. haemolyticus): 0.6 µg/mL (≈ 1.5 µM)
Inhibition of α-Hemolysin production (S. aureus [3]): 1.3 (3) μg/ml
Inhibition of α-toxin production (in words) (S. aureus [3]): inhibited α-toxin production
Inhibition of RNA III activation (RNAIII [2]): 3.5 (3) μg/ml

CC(C)(C)OC(=O)n1cc(C[C@H](NC(=O)OCC2c3ccccc3-c3ccccc32)C(=O)O)c2ccccc21 [Reference #35, Fmoc-L-Trp(Boc)-OH]
IC50, α-toxin production (S. warneri): 0.6 µg/mL (≈ 1.14 µM)
% Survival at 24 hr. (S. aureus [4]; 2 mg/kg IP): 25%
% Survival at 24 hr. (S. aureus [4]; 10 mg/kg IP): 71%
Number of mice that survived at 24 hours post-injection relative to vehicle (in words) (S. aureus [4]): effective to significantly increase the number of mice that survived
% Survival at 24 hr. (S. aureus [5]; 0.2 mg/kg): 0%
% Survival at 24 hr. (S. aureus [5]; 1 mg/kg): 83%
% Survival at 24 hr. (S. aureus [5]; 2 mg/kg): 67%
% Survival at 24 hr. (S. aureus [5]; 5 mg/kg): 83%
Number of mice that survived at 24 hours post-injection (in words) (S. aureus [5]): effective to significantly increase the number of mice that survived
IC50, α-toxin production (S. epidermidis (51625)): 0.5 µg/mL (≈ 0.95 µM)
Inhibition of TSST-1 (S. aureus [1]): 5.0 µg/mL
IC50, α-toxin production (S. haemolyticus): 0.6 µg/mL (≈ 1.14 µM)
IC50, α-toxin production (S. aureus [3]): 0.8 µg/mL (≈ 1.52 µM)
Inhibition of α-Hemolysin production (S. aureus [3]): 1.2 (13) μg/ml
Inhibition of α-toxin production (in words) (S. aureus [3]): inhibited α-toxin production
Inhibition of RNA III activation (RNAIII [2]): 1.4 µg/mL

O=C(N[C@@H](Cc1ccc2ccccc2c1)C(=O)O)OCC1c2ccccc2-c2ccccc21 [Fmoc-3-(2-naphthyl)alanine]
IC50 (S. aureus [6]; [9]): 4.2 µg/mL (≈ 9.6 µM)

ProCysThrAsnPhe (PCTNF; printed: ProCysThrAsnPhe) [peptide 1]
Inhibition of induction of RNAIII (in words) (RNAIII [7]): inactive

O=C(N[C@@H](C(=O)O)c1ccccc1)OCC1c2ccccc2-c2ccccc21 [Fmoc-D-phenylglycine]
IC50 (S. aureus [6]; [9]): 5.5 µg/mL (≈ 14.7 µM)

O=C(NC1(C(=O)O)CCCCC1)OCC1c2ccccc2-c2ccccc21 [Reference #86, Fmoc-1-amino-1-cyclohexane carboxylic acid]
IC50, α-toxin production (S. warneri): 0.6 µg/mL (≈ 1.64 µM)
IC50, α-toxin production (S. epidermidis (51625)): 0.4 µg/mL (≈ 1.09 µM)
Inhibition of TSST-1 (S. aureus [1]): 10.0 µg/mL
IC50, α-toxin production (S. haemolyticus): 0.6 µg/mL (≈ 1.64 µM)
Inhibition of α-Hemolysin production (S. aureus [3]): 2.1 (3) μg/ml
Inhibition of α-toxin production (in words) (S. aureus [3]): inhibited α-toxin production
Inhibition of RNA III activation (RNAIII [2]): 3.0 (3) μg/ml

O=C(N[C@@H](Cc1cn(C(c2ccccc2)(c2ccccc2)c2ccccc2)cn1)C(=O)O)OCC1c2ccccc2-c2ccccc21 [Reference #29, Fmoc-L-His(Trt)-OH]
Inhibition of TSST-1 (S. aureus [1]): 4.0 µg/mL
Inhibition of α-Hemolysin production (S. aureus [3]): 2.7 (3) μg/ml
Inhibition of RNA III activation (RNAIII [2]): 3.7 (3) μg/ml

O=C(N[C@@H](Cc1ccc(Br)cc1)C(=O)O)OCC1c2ccccc2-c2ccccc21 [Reference #73, Fmoc-4-bromo-L-phenylalanine]
IC50 (S. aureus [6]; [8]): 1.7 µg/mL (≈ 3.65 µM)
